Measurements: PubChem BioAssay AID179 (DTP/NCI, 2004)
Where “and” joins values, the source holds several entries; their conditions need not be identical. Equal entries are not always repeated. Calls of active or inactive are those of the source.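 Rule for the calls: active = compounds giving half or more protection of infected cells from virus-caused growth loss, again on retest; inactive = the rest.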 Where a SMILES comes first, the peptide text is derived from it.

Test system: CEM cells HIV-1 protection, formazan growth assay
Assay: NCI AIDS Antiviral Assay
Conditions: for IC50: measured here: growth of uninfected CEM cells
Summary of the method: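 Human CEM cells, uninfected and HIV-1-infected, exposed to five drug concentrations; growth measured by soluble formazan assay and scored as percent protection from infection, with protecting compounds retested.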

Question: What does the source list for `c1ccc(Cc2nc3ccccc3[nH]2)cc1`?
Answer: EC50: > 34.7 µM; IC50: > 34.7 µM

Question: Which results are given for `C=CCCC1CCCNC1=S` (stereo not given)?
Answer: EC50: > 776 µM; IC50: 708 µM

Question: For `O=C1Nc2ccccc2NC(=O)C1(O)O`, which EC50 is on record?
Answer: > 200 µM

Question: And the IC50?
Answer: > 200 µM

Question: How did the EC50 turn out when `COc1cc2ccc(C(=O)NCCCNC(=O)c3ccc4cc(OC)c(OC)cc4c3)cc2cc1OC` was run?
Answer: 126 µM

Question: What about the IC50 of the same compound?
Answer: > 200 µM

Question: With `CCOC(=O)c1c(Sc2ccc([N+](=O)[O-])cc2[N+](=O)[O-])nc2c3ccccc3ccn12` as the compound, how does the EC50 read?
Answer: > 200 µM

Question: And the IC50?
Answer: > 200 µM

Question: What does the source list for `C/C=C1/C(=Cc2[nH]c(C=c3[nH]/c(=C/C4=NC(=O)C(CC)=C4C)c(C)c3CCC(=O)O)c(CCC(=O)O)c2C)NC(=O)C1C` (stereo not given)?
Answer: EC50: > 28.8 µM; IC50: > 28.8 µM

Question: What does the source list for `FC(F)(F)c1ccc2nc(NCc3ccccc3)c(-c3ccccc3)nc2c1`?
Answer: EC50: > 19.1 µM; IC50: > 19.1 µM

Question: Which EC50 does the source give for `O=C(N/C(=C\c1c(O)ccc2ccccc12)c1nc2ccccc2[nH]1)c1ccccc1` here?
Answer: > 22.4 µM

Question: And the IC50?
Answer: > 22.4 µM

Question: With `Cc1csc2nc(-c3ccccc3)cn12` as the compound, how does the EC50 read?
Answer: > 437 µM

Question: And the IC50?
Answer: 204 µM

Question: Which EC50 does the source give for `CCc1cc(=O)n(/C(C)=C/c2ccccc2)n1C` here?
Answer: > 200 µM

Question: What about the IC50 of the same compound?
Answer: > 200 µM

Question: What does the source list for `Cc1ccc(NC(=O)C(=O)C(C#N)c2ccccc2C)cc1C` (stereo not given)?
Answer: EC50: > 23.4 µM; IC50: > 23.4 µM

Question: Which outcome does the source give for `C/C(=N\OCC(O)CNC(C)C)c1ccc2c(c1)NC(=O)CS2` (stereo not given) here?
Answer: inactive

Question: Which EC50 does the source give for `Nc1ccc(CCCCc2ccc(S(=O)(=O)F)cc2Cl)c(Cl)c1` here?
Answer: > 200 µM

Question: What about the IC50 of the same compound?
Answer: 21.9 µM

Question: Which results are given for `CC(Oc1ccc(OCC2CCCCC2)cc1)C(=O)O` (stereo not given)?
Answer: EC50: > 468 µM; IC50: 457 µM

Question: How did the EC50 turn out when `Cc1cn(C2CC(CCCO)C(CO)O2)c(=O)[nH]c1=O` (stereo not given) was run?
Answer: > 871 µM

Question: What about the IC50 of the same compound?
Answer: > 871 µM

Question: `COc1ccc(OC)c2c1ccc1c(C)c3ccccc3c(C)c12` was tested. Which EC50 did it give?
Answer: > 200 µM

Question: What about the IC50 of the same compound?
Answer: 35.5 µM

Question: With `CC(C)CC(NC(=O)C(Cc1ccc(O)cc1)NC(=O)C(C)N)C(=O)NCC(=O)NC(CCCCN)C(=O)NC(CCCCN)C(=O)NC(C(=O)NC(C)C(=O)NC(C(=O)NC(CC(N)=O)C(=O)O)C(C)O)C(C)C` (stereo not given) (H-AYLGKKVATN-OH; configuration not given here) as the compound, how does the outcome read?
Answer: inactive

Question: `O=C(O)CCC(CCC(=O)O)(C(=O)O)c1ccccc1` was tested. Which EC50 did it give?
Answer: > 5620 µM

Question: And the IC50?
Answer: 4470 µM

Question: Which results are given for `CC1=C(C)CP(=O)(c2ccccc2)C1`?
Answer: EC50: 0.0631 µM; IC50: > 200 µM

Question: `Cn1c(-c2cccs2)cc(-c2ccsc2)c1-c1ccsc1` was tested. Which EC50 did it give?
Answer: > 200 µM

Question: And the IC50?
Answer: > 200 µM

Question: For `O=C1C2N=NN(c3ccccc3)C2C(=O)N1c1ccccc1` (stereo not given), which EC50 is on record?
Answer: 41.7 µM

Question: And the IC50?
Answer: > 200 µM

Question: With `C[N+]1(C)C/C(=C\c2ccc(O)cc2)C(=O)/C(=C/c2ccc(O)cc2)C1` as the compound, how does the EC50 read?
Answer: > 77.6 µM

Question: What about the IC50 of the same compound?
Answer: 56.2 µM

Question: How did the EC50 turn out when `CCN(CC)CCSSCCN(CC)CC` was run?
Answer: > 200 µM

Question: And the IC50?
Answer: 38.9 µM

Question: For `CCOC(=O)CC(=O)ON(C)C(C)=O`, which EC50 is on record?
Answer: > 251 µM

Question: What about the IC50 of the same compound?
Answer: > 251 µM

Question: How did the EC50 turn out when `O=c1c(O)c(-c2ccc(O)c(O)c2)oc2cc(O)ccc12` was run?
Answer: > 550 µM

Question: What about the IC50 of the same compound?
Answer: 55 µM and 25.7 µM

Question: `COc1ccc(C/C=C(\C)CCO)cc1` was tested. Which EC50 did it give?
Answer: > 200 µM

Question: And the IC50?
Answer: 126 µM

Question: Which results are given for `COc1ccc2cc(C(=O)O)ccc2c1OC`?
Answer: EC50: > 200 µM; IC50: > 200 µM

Question: With `N#Cc1ccc(OCCSCCCCCCCCCCSCCOc2ccc(C#N)cc2)cc1` as the compound, how does the EC50 read?
Answer: > 2.88 µM

Question: What about the IC50 of the same compound?
Answer: > 2.88 µM

Question: Which EC50 does the source give for `O=C1c2ccccc2N2OC3C4CCC(C4)C3C12c1ccccc1` (stereo not given) here?
Answer: > 16.2 µM

Question: What about the IC50 of the same compound?
Answer: 11.5 µM

Question: For `O=C1C2CCC3C1C(C(=O)O)C(C(=O)O)C23` (stereo not given), which EC50 is on record?
Answer: > 200 µM

Question: And the IC50?
Answer: > 200 µM

Question: Which results are given for `CC(C)/C(Cl)=N\OC(=O)Nc1ccc(F)c([N+](=O)[O-])c1`?
Answer: EC50: > 200 µM; IC50: 3.02 µM

Question: Which results are given for `N#CCCn1[nH]c(=O)c(Cl)c(Cl)c1=O`?
Answer: EC50: > 1070 µM; IC50: 5.62 µM

Question: `O=c1[nH]c(Nc2nc3ccccc3[nH]2)nc(O)c1-c1ccccc1` was tested. Which EC50 did it give?
Answer: 162 µM

Question: What about the IC50 of the same compound?
Answer: > 200 µM

Question: How did the EC50 turn out when `CC(=O)O[C@H]1[C@@H](OC2CCCC2(c2ccccc2)c2ccccc2)O[N+]([O-])=C[C@@]12COCc1cc3c(cc12)OCO3` (stereo not given in full) was run?
Answer: > 200 µM

Question: And the IC50?
Answer: 11.7 µM

Question: What does the source list for `COc1ccccc1NC(=O)C1=C(C)NC(C)=C(C(=O)Nc2ccccc2OC)C1c1ccc([N+](=O)[O-])cc1`?
Answer: EC50: > 9.77 µM; IC50: > 9.77 µM

Question: `O=c1[nH]c2ccc(C(F)(F)F)cc2nc1Cc1ccccc1` was tested. Which EC50 did it give?
Answer: > 200 µM

Question: And the IC50?
Answer: 74.1 µM

Question: `COc1ccccc1C1SCC(=O)N1c1ccc(-n2c(-c3ccccc3)nc3ccccc3c2=O)cc1` (stereo not given) was tested. Which EC50 did it give?
Answer: > 200 µM

Question: And the IC50?
Answer: 135 µM

Question: Which EC50 does the source give for `CCc1cc2c(=O)[nH]c(-c3cccnc3)nc2s1` here?
Answer: > 200 µM

Question: What about the IC50 of the same compound?
Answer: > 200 µM

Question: Which EC50 does the source give for `CCCCCC(C)SC1(C(=O)OC)CC(OC(C)=O)C(NC(C)=O)C([C@H](OC(C)=O)[C@@H](COC(C)=O)OC(C)=O)O1` (stereo not given in full) here?
Answer: > 200 µM

Question: And the IC50?
Answer: 63.1 µM

Question: `COc1cc(C(=O)N(C)N(C)C)cc(OC)c1OC` was tested. Which EC50 did it give?
Answer: > 200 µM

Question: What about the IC50 of the same compound?
Answer: > 200 µM

Question: Which results are given for `CCCCCCCCCCCCCCNCC(OCC)OCC`?
Answer: EC50: > 200 µM; IC50: 9.33 µM
